Measured values from US9771345B2, “Coferons and methods of making and using them” (Cornell University, priority 2009, dated 2017).
Counter-ions that a name gives are not always drawn.

Tests used:
[1] = target: T1, recombinant human tryptase, beta, from lung (Homo sapiens, UniProt P20231); assay: Inhibition of tryptase activity by coferons (Boc-Gln-Ala-Arg-AMC fluorescence); type: biochemical; settings: coferon monomer alone; 1 nM tryptase
T1 construct: purchased Promega or Enzo Life Sciences G5631 or BML-SE418
T1 sequence (P20231 31-275): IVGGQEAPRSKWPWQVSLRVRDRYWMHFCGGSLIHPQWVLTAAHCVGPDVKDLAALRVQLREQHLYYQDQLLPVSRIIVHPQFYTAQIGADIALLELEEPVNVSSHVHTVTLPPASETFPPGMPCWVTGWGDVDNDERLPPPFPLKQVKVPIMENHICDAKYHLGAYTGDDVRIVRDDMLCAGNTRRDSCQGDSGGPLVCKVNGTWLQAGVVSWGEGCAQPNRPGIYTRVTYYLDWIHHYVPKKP
Method: Stock solutions of recombinant human tryptase, beta, from lung (Promega: catalog number G5631, or Enzo Life Sciences: catalog number BML-SE418) were made at 30 μM, in solution with 50 μM heparin sulfate and 500 mM NaCl. Coferon tryptase inhibitor stock solutions were made at 50 mM in DMSO. Drug plates were made at 5× the final concentration in assay buffer (50 mM HEPES, 150 mM NaCl, 100 μM EDTA, pH 7.4, 0.02% Tween-20). A final concentration of 1 nM tryptase was used. When required, drugs were diluted in assay buffer immediately before use in 10-fold serial dilutions. […] The Softmax Pro (Molecular Devices) and Graphpad prism software were used to determine Vmax, and concentration-response curve IC50s, respectively.

[2] = LC-MS/MS determination of dimerization of summa linkers; type: physicochemical; settings: for Dimer 4 level: after 115 h
Text: For summa linkers and coferons that form dimers that are slow to hydrolyze/equilibrate under the chromatographic conditions, evidence for dimerization or oligomerization may be generated using LC-MS/MS methods in which the monomeric and dimeric species are separated by reversed-phase liquid chromatography and identified using tandem mass spectrometric methods, typically utilizing MRM transitions to maximize sensitivity. Often this approach is capable of separating and quantifying isomeric and diastereomeric dimeric states of the summa linker and coferon assemblies.
Typically, a solution of the following homodimeric summa linker was incubated under various conditions of pH, concentration, organic cosolvent, or protein additives, etc. and aliquots were chromatographed on a Primesep 200 (150×4.6 mm, 5μ) RP-HPLC column using a flow rate of 1.0 mL/min and a linear gradient of 0.1% aqueous TFA/acetonitrile over 25-30 minutes. Preparations containing a known amount of dimeric species (as determined by NMR for example) can be employed as a standard to allow for accurate quantitation of monomeric and dimeric states. For example, using such conditions, 4 isomeric dimers of the following racemic amino-cyclobutanone summa linker moiety (RT 7.29 min; example 47; >99.7% monomeric) were quantified under various conditions. When incubated at 0.125 mg/mL at 20° C. at pH 2.0 in 0.1% TFA, dimers-1, -2 & -3 eluting at 15, 15.5 and 16 min, respectively, increased from 0.06%, 0.06% and 0.11% at time zero to 2.35, 2.3%, and 5.2% after 169 h; dimer-4 was not observed under these conditions. […] Complete equilibrium between monomer and dimer-4 was not achieved within this timeframe, as dimer-4 was still increasing at 169 h.

[3] = Alizarin Red S displacement: equilibrium between boronic acid and diols or other ligands; type: physicochemical; settings: 0.10 M phosphate buffer, pH 7.4; no Keq range given
Text: To assess the potential of boronic acid diol pairs as potential summa linkers within Coferons, the Alizarin Red S method was used essentially as described (Springsteen, G. and Wang, B, Tetrahedron 58: 5291-5300 (2002), which is hereby incorporated by reference in its entirety). Alizarin Red S gives a red color when free in solution, and shifts to yellow when complexed to boronic acids.
To determine equilibria between boronic acid species and diols or other ligands, a solution containing 2.0×10^−3 M boronic acid, 1.0×10^−4 M of ARS in 0.10 M phosphate buffer, pH 7.4 was prepared. Diol or other ligands from 3×10^−2 M to 1.0×10^−4 M were serially diluted into the above boronic acid-ARS mix, and absorbance spectra were determined from 350 to 750 nm. (stock solutions were made to 100 mM in DMSO). The higher concentrations of diol would displace the boronic acid from complexation with ARS, liberating free ARS and turning the solution pink. The percent complexed and percent free ARS was determined by comparing absorbance level to fully complexed and free ARS at 440 and 550 nm. The approximate equilibrium constant Keq2 for a given boronic acid-diol complexation was estimated using the formula: Keq=[ARS−PBA]/[ARS]×[PBA] [PBA]=[ARS−PBA]/[ARS]×Keq [Sorb−PBA]=0.002−[PBA]−[ARS−PBA] [Sorb]=Total Sorb−[Sorb−PBA] Keq2=[Sorb PBA]/[Sorb]×[PBA] (where ARS=Alizarin Red S; Sorb=sorbitol; and PBA=Phenylboronic acid as an example).

[4] = 0.125 mg/mL, 20° C., pH 2.0 in 0.1% TFA, after 169 h
[5] = 0.125 mg/mL, 20° C., pH 2.0 in 0.1% TFA, time zero

**Q.** For `NCc1cccc(C2CCN(C(=O)c3cccc(OCC(=O)N4C[C@@H](O)[C@@H](O)C4)c3)CC2)c1` [Example 50, 2-(3-(4-(3-(aminomethyl)phenyl)piperidine-1-carbonyl)phenoxy)-1-((3S,4R)-3,4-dihydroxypyrrolidin-1-yl)ethanone], which IC50 [1] is on record?
**A.** 7.5 µM

**Q.** For `NCc1cccc(C2CCN(C(=O)/C=C/c3ccc(O)c(O)c3)CC2)c1` [Example 39, (E)-1-(4-(3-(aminomethyl)phenyl)piperidin-1-yl)-3-(3,4-dihydroxyphenyl)prop-2-en-1-one hydrochloride], which IC50 [1] is on record?
**A.** 4.3 µM

**Q.** With `NCc1cccc(C2CCN(C(=O)Cc3ccc(B(O)O)cc3)CC2)c1` [Example 37, (4-(2-(4-(3-(aminomethyl)phenyl)piperidin-1-yl)-2-oxoethyl)phenyl)boronic acid] as the compound, how does the IC50 [1] read?
**A.** 1.05 µM

**Q.** For `CCOC(=O)c1cnc(NC2CCC2=O)nc1C` (centres unmarked) [Example 47, Ethyl 4-methyl-2-((2-oxocyclobutyl)amino)pyrimidine-5-carboxylate], which dimer-4 formation ([2]; 0.125 mg/mL, 20° C., pH 2.0 in 0.1% TFA) is on record?
**A.** not observed

**Q.** What about the dimer-1 level [2, 4] of the same compound?
**A.** 2.35%

**Q.** And the dimer-2 level [2, 4]?
**A.** 2.3%

**Q.** And the dimer-3 level [2, 4]?
**A.** 5.2%

**Q.** What about the dimer-1 level [2, 5] of the same compound?
**A.** 0.06%

**Q.** What about the dimer-2 level [2, 5] of the same compound?
**A.** 0.06%

**Q.** And the dimer-3 level [2, 5]?
**A.** 0.11%

**Q.** And the “fraction of dimer-4 at equilibrium” value ([2]; 0.5 mg/mL, pH7.4 HEPES buffer with BSA)?
**A.** > 14%

**Q.** What about the “Dimer 4 level” value ([2]; 0.5 mg/mL, pH7.4 HEPES buffer, in the absence of BSA) of the same compound?
**A.** 4.73%

**Q.** And the “Dimer 4 level” value ([2]; 0.5 mg/mL, pH7.4 HEPES buffer, in the presence of BSA)?
**A.** 13.75%

**Q.** And the dimer-4 level ([2]; pH7.4 HEPES buffer, 169 h)?
**A.** 1.82%

**Q.** And the “levels of dimers-1, -2, and -3” value ([2]; pH7.4 HEPES buffer, over 169 h)?
**A.** below 0.01%

**Q.** What about the dimer-4 level ([2]; pH7.4 HEPES buffer, start) of the same compound?
**A.** < 0.015%

**Q.** For `O=C(O)C(O)c1cccc(F)c1F` (centres unmarked) [2,3-difluoromandelic acid, 2,3-Difluoromandelic acid], which “affinity of diol or other ligand for boronic acids in aqueous solution (in words)” value (from here on “affinity of diol or other ligand”) [3] is on record?
**A.** lower affinities for boronic acids

**Q.** For `O=C(O)C(O)c1ccc(F)cc1F` (centres unmarked) [2,4-difluoromandelic acid, 2,4-Difluoromandelic acid], which “affinity of diol or other ligand” value [3] is on record?
**A.** lower affinities for boronic acids

**Q.** With `CC(O)C(=O)O` (centres unmarked) [lactic acid (solution), Lactic acid] as the compound, how does the “affinity of diol or other ligand” value [3] read?
**A.** lower affinities for boronic acids

**Q.** With `O[C@@H]1CCCC[C@@H]1O` [cis-1,2-cyclohexanediol, cis-1,2-Cyclohexanediol] as the compound, how does the “affinity of diol or other ligand” value [3] read?
**A.** lower affinities for boronic acids

**Q.** With `O=C(O)C(=O)Cc1ccccc1` [phenylpyruvic acid, Phenylpyruvic acid] as the compound, how does the “affinity of diol or other ligand” value [3] read?
**A.** lower affinities for boronic acids

**Q.** With `NCc1cccc(C2CCN(C(=O)c3cccc4ccc(B(O)O)cc34)CC2)c1` [Example 35, (8-(4-(3-(aminomethyl)phenyl)piperidine-1-carbonyl)naphthalen-2-yl)boronic acid] as the compound, how does the IC50 [1] read?
**A.** 15 µM

**Q.** Which IC50 [1] does the source give for `NCc1cccc(C2CCN(C(=O)Cc3cccc(B(O)O)c3)CC2)c1` [Example 36, (3-(2-(4-(3-(aminomethyl)phenyl)piperidin-1-yl)-2-oxoethyl)phenyl)boronic acid] here?
**A.** 8.15 µM

**Q.** For `NC(CO)(CO)CO` [tris base (TRIZMA Base), Tris Base (TRIZMA Base)], which “affinity of diol or other ligand” value [3] is on record?
**A.** lower affinities for boronic acids

**Q.** Which “affinity of diol or other ligand” value [3] does the source give for `O=C(O)C(O)c1ccccc1` (racemic) [DL-mandelic acid, DL-Mandelic acid] here?
**A.** lower affinities for boronic acids

**Q.** With `NCc1cccc(C2CCN(C(=O)c3cccc4cc(B(O)O)ccc34)CC2)c1` [Example 34, (5-(4-(3-(amino methyl)phenyl)piperidine-1-carbonyl)napthalen-2-yl)boronic acid] as the compound, how does the IC50 [1] read?
**A.** 0.48 µM

**Q.** For `NCc1cccc(C2CCN(C(=O)c3cccc4cc(O)c(O)cc34)CC2)c1` [Example 40, (4-(3-(aminomethyl)phenyl)piperidin-1-yl)(6,7-dihydroxynaphthalen-1-yl)methanone], which IC50 [1] is on record?
**A.** 1.2 µM

**Q.** For `O=C(O)C(O)c1c(F)cccc1F` (centres unmarked) [2,6-difluoromandelic acid, 2,6-Difluoromandelic acid], which “affinity of diol or other ligand” value [3] is on record?
**A.** lower affinities for boronic acids

**Q.** For `CNc1ccccc1O` [2-(methylamino)phenol, 2-(Methylamino)phenol], which “affinity of diol or other ligand” value [3] is on record?
**A.** lower affinities for boronic acids

**Q.** For `O=C(O)C(O)c1cc(F)cc(F)c1` (centres unmarked) [3,5-difluoromandelic acid, 3,5-Difluoromandelic acid], which “affinity of diol or other ligand” value [3] is on record?
**A.** lower affinities for boronic acids

**Q.** With `O=C[C@H](O)[C@@H](O)[C@H](O)[C@H](O)CO` [D-(+)-glucose, D-(+)-Glucose] as the compound, how does the “affinity of diol or other ligand” value [3] read?
**A.** lower affinities for boronic acids

**Q.** With `O=C(NCCO)c1ccccc1O` [N-(2-hydroxyethyl)salicylamide, N-(2-Hydroxyethyl)salicylamide] as the compound, how does the “affinity of diol or other ligand” value [3] read?
**A.** lower affinities for boronic acids
